Assay results as given in patent publication US9358232B2, “Methods for treating cancer using TOR kinase inhibitor combination therapy” (Signal Pharmaceuticals, LLC, priority 2013, dated 2016).
Entries after “also recorded” stand apart in the source; their conditions may differ.

Columns and labels:
WSU-DLCL2 xenograft = assay: DLBCL xenograft model; assay type: in vivo, SCID mice; conditions: for tumor volume reduction (TVR): Day 35, end of 3-week dosing, vs vehicle control (FIG. 1); for decrease in tumor volume (TVR): Day 34, vs vehicle, Compound 1 10 mg/kg QD, Compound A 30 mg/kg QD, alone or combined (FIGS. 2-3)
Description: Severe combined immunodeficiency (SCID) mice were implanted with human DLBCL cell line (WSU-DLCL2) into the flank. Treatment of compounds started between Day 11 and Day 14 after cell inoculation. Randomized groups of mice (n=9 to 10/group) were treated with the single agents (Compound 1, Compound A or Compound AA) or the combination of Compound 1/Compound A, Compound A/Compound AA, or Compound 1/Compound AA. Compounds were administered orally on a once daily (Compound 1 and Compound A) or twice daily […] schedule for 21 days. The positive control consisted of CHOP therapy (combination of cyclophosphamide, doxorubicin, vincristine and prednisone). Compound 1 and Compound A were formulated in CMC-Tween (carboxymethylcellulose/Tween 80/deionized water). Compound AA was suspended in DSP (dimethylsulphoxide/solutol/phosphate buffered saline).
Initial studies were conducted in order to determine the antitumor activity of Compound 1 and to identify a dose level for the combination studies. In the WSU-DLCL2 xenograft model, Compound 1 inhibited tumor growth in a dose-dependent fashion. […] In a subsequent combination study, Compound 1 was dosed at 10 mg/kg, once daily (QD). Compound A and Compound AA were dosed at 30 mg/kg (QD) and 50 mg/kg (BID), respectively.

BTK = BTK (Homo sapiens, UniProt Q06187); conditions: enzymatic and cellular assays; cited from earlier work
B-cell = conditions: cited from earlier work
[1] = combination study, Compound AA 50 mg/kg BID
[2] = combination study, single agents or in combination

Sequence of BTK (Q06187 whole entry): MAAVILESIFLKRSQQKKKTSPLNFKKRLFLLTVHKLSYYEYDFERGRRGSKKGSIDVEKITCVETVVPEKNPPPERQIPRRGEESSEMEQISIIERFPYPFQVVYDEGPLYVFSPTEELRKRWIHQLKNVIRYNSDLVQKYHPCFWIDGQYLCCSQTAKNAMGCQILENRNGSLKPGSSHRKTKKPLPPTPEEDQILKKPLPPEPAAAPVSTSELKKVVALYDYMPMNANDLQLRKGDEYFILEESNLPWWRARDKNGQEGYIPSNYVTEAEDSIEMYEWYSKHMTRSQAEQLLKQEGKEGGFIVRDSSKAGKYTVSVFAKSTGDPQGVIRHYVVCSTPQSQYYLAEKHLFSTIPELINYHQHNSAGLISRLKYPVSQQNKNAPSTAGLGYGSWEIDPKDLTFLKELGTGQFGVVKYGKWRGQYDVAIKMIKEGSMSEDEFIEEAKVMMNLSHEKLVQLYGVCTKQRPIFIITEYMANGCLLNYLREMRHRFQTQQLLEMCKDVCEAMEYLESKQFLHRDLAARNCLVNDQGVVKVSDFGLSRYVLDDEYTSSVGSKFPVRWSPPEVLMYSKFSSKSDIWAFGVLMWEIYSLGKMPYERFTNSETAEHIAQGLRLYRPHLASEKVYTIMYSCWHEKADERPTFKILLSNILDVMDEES

Row | SMILES | antitumor activity as single agent (WSU-DLCL2 xenograft; [1]) | body weight loss (WSU-DLCL2 xenograft; [2]) | inhibition of BTK (BTK) | effect on B-cell proliferation and activation (B-cell) | tumor volume reduction (TVR) (WSU-DLCL2 xenograft; 1 mg/kg oral once daily) | tumor volume reduction (TVR) (WSU-DLCL2 xenograft; 3 mg/kg oral once daily) | decrease in tumor volume (TVR) (WSU-DLCL2 xenograft; [1]) | body weight loss (WSU-DLCL2 xenograft; initial dose study, 1, 3 and 10 mg/kg (FIG. 1))
1 | C=CC(=O)Nc1cccc(Nc2nc(Nc3ccc(OCCOC)cc3)ncc2F)c1 [Compound AA, N-(3-(5-fluoro-2-(4-(2-methoxyethoxy)phenylamino)pyrimidin-4-ylamino)phenyl)acrylamide] | No significant antitumor activity; also recorded: inactive | No significant body weight loss | covalent, irreversible inhibition of BTK | inhibit B-cell proliferation and activation |  |  |  | 
2 | CO[C@H]1CC[C@H](N2C(=O)CNc3ncc(-c4ccc(C(C)(C)O)nc4)nc32)CC1 [Compound 1, 7-(6-(2-hydroxypropan-2-yl)pyridin-3-yl)-1-((1r,4r)-4-methoxycyclohexyl)-3,4-dihydropyrazino-[2,3-b]pyrazin-2(1H)-one] |  | No significant body weight loss |  |  | ~22% | ~28% | 29% | No significant body weight loss
3 | Cc1nc2cccc(N)c2c(=O)n1C1CCC(=O)NC1=O (centres unmarked) [Compound A, 3-(5-Amino-2-methyl-4-oxoquinazolin-3(4H)-yl)-piperidine-2,6-dione] |  | No significant body weight loss |  |  |  |  | 30% | 
